Reference: EPA's ToxValDB 9.5 (doi:10.2903/j.efsa.2009.194r)

How the values were obtained:
[1] = test system: Tagia sp.; conditions: acute; duration: 14 days; mortality
[2] = test system: Colinus virginianus; conditions: for LD50: acute, oral, mortality
[3] = test system: Lepomis macrochirus; conditions: acute; duration: 96 hours; mortality
[4] = test system: Rattus norvegicus; conditions: for NOAEL: hematological
[5] = test system: Typhlodromus pyri; conditions: chronic/long-term
[6] = test system: Pimephales promelas; conditions: chronic/long-term; duration: 36 days; growth
[7] = test system: Daphnia magna; conditions: chronic/long-term; duration: 21 days; reproduction
[8] = test system: Apis mellifera; conditions: acute; duration: 48 hours; dermal; mortality
[9] = test system: Aphidius rhopalosiphi; conditions: chronic/long-term
[10] = test system: Canidae; conditions: chronic; duration: 1 years; oral; Dog Other; hematological

Compound: O=C(NC(=O)c1ccccc1Cl)Nc1ccc(OC(F)(F)F)cc1 [Triflumuron]
- LC50 [1]: > 500 mg/kg
- LD50 ([2]; diet): > 805 mg/kg-day
- LD50 [2]: 561 mg/kg-day
- NOEC ([2]; reproduction developmental): 1.65 mg/kg-day
- LC50 [3]: > 0.0208 µg/mL
- LD50 ([4]; acute, oral, mortality): > 5000 mg/kg-day
- NOEC ([4]; chronic): 142 mg/kg-day
- NOAEL ([4]; chronic, duration: 2 years): 0.82 mg/kg-day
- NOAEL ([4]; subchronic, duration: 90 days, oral): 3.6 mg/kg-day
- LEL ([5]; duration: 7 days, mortality): 384 g/ha
- LEL ([5]; reproduction): 384 g/ha
- NOEC [6]: ≥ 0.0228 mg/L
- NOEC [7]: 3.2e-05 mg/L
- LD50 [8]: > 200 µg/piece
- LEL ([9]; mortality): 300 g/ha
- LEL ([9]; reproduction): 300 g/ha
- NOAEL [10]: 1.42 mg/kg-day
